According to patent US20150105252A1, “SUBSTITUTED PYRAZOLES AS HERBICIDES” (E I DU PONT DE NEMOURS AND COMPANY, priority 2013, published 2015):

Experiments:
[1] = test system: ryegrass, Italian; assay: Test D postemergence; format: in vivo, Lolium multiflorum; settings: scale 0 to 100
Text: (§1) Seeds of plant species selected from bluegrass (annual bluegrass, Poa annua), blackgrass (Alopecurus myosuroides), canarygrass (littleseed canarygrass, Phalaris minor), chickweed (common chickweed, Stellaria media), galium (catchweed bedstraw, Galium aparine), bromegrass, downy (downy bromegrass, Bromus tectorum), field poppy (Papaver rhoeas), field violet (Viola arvensis), foxtail, green (green foxtail, Setaria viridis), deadnettle (henbit deadnettle, Lamium amplexicaule), ryegrass, Italian (Italian ryegrass, Lolium multiflorum), kochia (Kochia scoparia), lambsquarters (Chenopodium album), oilseed rape (Brassica napus), pigweed (redroot pigweed, Amaranthus retroflexus), chamomile (scentless chamomile, Matricaria inodora), speedwell (bird's-eye speedwell, Veronica persica), barley, spring (spring barley, Hordeum vulgare), wheat, spring (spring wheat, Triticum aestivum), buckwheat, wild (wild buckwheat, Polygonum convolvulus), mustard, wild (wild mustard, Sinapis arvensis), oat, wild (wild oat, Avena fatua), radish, wild (wild radish, Raphanus raphanistrum), windgrass (Apera spica-venti), Russian thistle (Salsola kali), barley, winter (winter barley, Hordeum vulgare), and wheat, winter (winter wheat, Triticum aestivum) were planted into a silt loam soil and treated preemergence with test chemicals formulated in a non-phytotoxic solvent mixture which included a surfactant.
(§2) At the same time, these species were planted in pots containing Redi-Earth® planting medium (Scotts Company, 14111 Scottslawn Road, Marysville, Ohio 43041) comprising spaghnum peat moss, vermiculite, wetting agent and starter nutrients and treated with postemergence applications of the test chemicals formulated in the same manner. Plants ranged in height from 2 to 18 cm (1- to 4-leaf stage). Treated plants and controls were maintained in a controlled growth environment for 14 to 21 days after which time all species were compared to controls and visually evaluated. Plant response ratings, summarized in Table D, are based on a scale of 0 to 100 where 0 is no effect and 100 is complete control. A dash (-) response means no test result.

[2] = test system: pigweed; assay: Test D preemergence; format: in vivo, Amaranthus retroflexus; settings: Preemergence, scale 0 to 100
Text: as §1, §2

[3] = test system: chickweed; assay: Test D postemergence; format: in vivo, Stellaria media; settings: scale 0 to 100
Text: as §1, §2

[4] = test system: deadnettle; assay: Test D postemergence; format: in vivo, Lamium amplexicaule; settings: scale 0 to 100
Text: as §1, §2

[5] = test system: bluegrass; assay: Test D preemergence; format: in vivo, Poa annua; settings: Preemergence, scale 0 to 100
Text: as §1, §2

[6] = test system: wheat, spring; assay: Test D postemergence; format: in vivo, Triticum aestivum; settings: scale 0 to 100
Text: as §1, §2

[7] = test system: wheat, winter; assay: Test D postemergence; format: in vivo, Triticum aestivum; settings: scale 0 to 100
Text: as §1, §2

[8] = test system: ryegrass, Italian; assay: Test D preemergence; format: in vivo, Lolium multiflorum; settings: Preemergence, scale 0 to 100
Text: as §1, §2

[9] = test system: radish, wild; assay: Test D preemergence; format: in vivo, Raphanus raphanistrum; settings: Preemergence, scale 0 to 100
Text: as §1, §2

CCCc1cc(C(=O)NC2CC2)nn1Cc1cc(C(F)(F)F)nn1C [Compound 202]
Ryegrass, Italian plant response rating ([1]; Postemergence, 31 g ai/ha): 10 | Ryegrass, Italian plant response rating ([1]; Postemergence, 125 g ai/ha): 10 | Ryegrass, Italian plant response rating ([1]; Postemergence, 250 g ai/ha): 15 | Ryegrass, Italian plant response rating ([1]; postemergence, 62 g ai/ha): 10 | Plant response rating, Pigweed ([2]; 62 g ai/ha): 100 | Plant response rating, Pigweed ([2]; 125 g ai/ha): 100 | Plant response rating, Pigweed ([2]; 250 g ai/ha): 100 | Chickweed plant response rating ([3]; Postemergence, 31 g ai/ha): 55 | Chickweed plant response rating ([3]; Postemergence, 125 g ai/ha): 45 | Chickweed plant response rating ([3]; Postemergence, 250 g ai/ha): 70 | Chickweed plant response rating ([3]; postemergence, 62 g ai/ha): 55 | Deadnettle plant response rating ([4]; Postemergence, 31 g ai/ha): 55 | Deadnettle plant response rating ([4]; Postemergence, 125 g ai/ha): 60 | Deadnettle plant response rating ([4]; Postemergence, 250 g ai/ha): 65 | Deadnettle plant response rating ([4]; postemergence, 62 g ai/ha): 55 | Plant response rating, Bluegrass ([5]; 31 g ai/ha): 10 | Plant response rating, Bluegrass ([5]; 62 g ai/ha): 5 | Plant response rating, Bluegrass ([5]; 125 g ai/ha): 50 | Plant response rating, Bluegrass ([5]; 250 g ai/ha): 80 | Wheat, Spring plant response rating ([6]; Postemergence, 31 g ai/ha): 10 | Wheat, Spring plant response rating ([6]; Postemergence, 125 g ai/ha): 10 | Wheat, Spring plant response rating ([6]; Postemergence, 250 g ai/ha): 20 | Wheat, Spring plant response rating ([6]; postemergence, 62 g ai/ha): 10 | Wheat, Winter plant response rating ([7]; Postemergence, 31 g ai/ha): 15 | Wheat, Winter plant response rating ([7]; Postemergence, 125 g ai/ha): 20 | Wheat, Winter plant response rating ([7]; Postemergence, 250 g ai/ha): 25 | Wheat, Winter plant response rating ([7]; postemergence, 62 g ai/ha): 15 | Plant response rating, Ryegrass, Italian ([8]; 62 g ai/ha): 0 | Plant response rating, Ryegrass, Italian ([8]; 125 g ai/ha): 40 | Plant response rating, Ryegrass, Italian ([8]; 250 g ai/ha): 80 | Plant response rating, Radish, Wild ([9]; 62 g ai/ha): 100 | Plant response rating, Radish, Wild ([9]; 125 g ai/ha): 100 | Plant response rating, Radish, Wild ([9]; 250 g ai/ha): 100
